Source: PMC8694812 (RSC Advances, 2021)

Key:
[1] = tested on: BEAS-2B cells; assay: MTT cell viability of BEAS-2B cells, dark and 660 nm LED irradiation; assay type: cell-based, human; conditions: Eu bis up to 50 μM, Lu bis above 2.5 μM, ZnPc 0.25 μM or above
[2] = DMSO, ZnPc standard; cited from earlier work
[3] = ZnPc standard, cited from earlier work
[4] = tested on: A549 cells; assay: MTT cell viability of A549 cells, dark and 660 nm LED irradiation; assay type: cell-based, human; conditions: 24 hours, 660 nm 30 min
[5] = ZnPc standard, cited from earlier work; remark: listed apart in the source

**Q.** With `[Zn+2].c1ccc2c(c1)-c1nc-2nc2[n-]c(nc3nc([n-]c4nc(n1)-c1ccccc1-4)-c1ccccc1-3)c1ccccc21` [ZnPc, unsubstituted zinc(II)phthalocyanine] as the compound, how does the “effect of light irradiation on viability” value [1] read?
**A.** reduced the viability

**Q.** What about the “ΦF (fluorescence quantum yield)” value [2] of the same compound?
**A.** 0.180 (ref. [64])

**Q.** And the “Direct ΦΔ in THF” value ([3]; fraction)?
**A.** 0.530 (ref. [66])

**Q.** And the “ΦΔ (%) Direct in THF” value ([3]; singlet oxygen quantum yield, THF)?
**A.** 53%

**Q.** And the “effect of light irradiation on viability/toxicity” value [4]?
**A.** high toxicity in the sub-μM range

**Q.** And the “Indirect ΦΔ in DMSO” value ([5]; fraction)?
**A.** 0.670 (ref. [65])

**Q.** And the “ΦΔ (%) Indirect in DMSO” value ([5]; singlet oxygen quantum yield, DMSO)?
**A.** 67%
